The values below come from patent US20230117034A1, “PYRAZOLOTRIAZINES” (Bayer Aktiengesellschaft, priority 2019, published 2023).

In one test the target is CDK12/CycK (Homo sapiens, UniProt Q9NYV4). Nature of the test: CDK12/CycK high ATP kinase assay (TR-FRET, 2 mM ATP). The class given is biochemical. As to conditions: 2 mM ATP (high ATP); median; read-out: CDK12/CyclinK, 2 mM ATP (high ATP), IC50-[mol/l] (median). On the procedure: In the context of the present invention, the term “IC50 CDK12 hATP” refers to the IC50 values obtained according to the assay described in this section (2.2) herein below, i.e. the IC50 values for the inhibition of CDK12 at high (2 mM) ATP.
Chain of CDK12/CycK (Q9NYV4 with tags, fused parts or gaps): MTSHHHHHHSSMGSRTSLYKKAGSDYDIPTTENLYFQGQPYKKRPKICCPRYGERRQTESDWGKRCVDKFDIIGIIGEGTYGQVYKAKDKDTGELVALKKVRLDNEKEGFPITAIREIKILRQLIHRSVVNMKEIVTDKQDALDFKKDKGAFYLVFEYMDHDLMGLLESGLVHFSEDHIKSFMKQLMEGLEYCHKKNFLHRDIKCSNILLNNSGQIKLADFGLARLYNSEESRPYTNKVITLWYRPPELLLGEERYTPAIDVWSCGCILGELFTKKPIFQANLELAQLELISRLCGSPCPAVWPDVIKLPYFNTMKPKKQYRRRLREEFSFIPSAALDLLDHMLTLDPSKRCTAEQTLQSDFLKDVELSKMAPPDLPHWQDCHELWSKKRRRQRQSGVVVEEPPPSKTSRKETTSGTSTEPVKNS
Chain of CDK12/CycK (O75909 1-300 partner limits assumed): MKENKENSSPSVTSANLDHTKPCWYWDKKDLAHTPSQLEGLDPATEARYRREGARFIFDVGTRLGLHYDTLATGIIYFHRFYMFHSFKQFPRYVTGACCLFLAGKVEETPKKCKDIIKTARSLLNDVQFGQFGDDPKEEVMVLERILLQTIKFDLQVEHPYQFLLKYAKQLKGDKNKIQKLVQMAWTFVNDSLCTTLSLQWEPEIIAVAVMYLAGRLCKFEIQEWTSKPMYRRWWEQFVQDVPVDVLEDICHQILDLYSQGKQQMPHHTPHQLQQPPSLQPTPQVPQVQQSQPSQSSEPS
CDK12/CycK-inhibitory activity of compounds of the present invention at 2 millimol/L adenosine-tri-phosphate (ATP) was quantified employing the TR-FRET (TR-FRET=Time Resolved Fluorescence Energy Transfer) based CDK12/CycK activity inhibition assay as described in the following paragraphs.
A complex of human recombinant CDK12 and human recombinant CycK (both N-terminally His-tagged, expression and purification as described above) was used as enzyme. As substrate for the kinase reaction biotinylated peptide biotin-Ahx-KFELLPTPPLSPSRRSGL (C-terminus in amid form) was used which can be purchased e.g. form the company Biosyntan (Berlin-Buch, Germany).
For the assay 50 nanoL of a 100 fold concentrated solution of the test compound in DMSO was pipetted into either a black low volume 384 well microtiter plate or a black 1536 well microtiter plate (both Greiner Bio-One, Frickenhausen, Germany), 2 microL of a solution of CDK12/CycK in aqueous assay buffer [25 millimol/L HEPES pH 7.5, 20 millimol/L MgCl2, 5 millimol/L β-glycerophosphate, 2 millimol/L EGTA, 1.0 millimol/L dithiothreitol, 0.01% (v/v) Nonidet-P40 (Sigma), 0.01% (w/v) bovine serum albumin] were added and the mixture was incubated for 15 min at 22° C. to allow pre-binding of the test compounds to the enzyme before the start of the kinase reaction. Then the kinase reaction was started by the addition of 3 microL of a solution ATP (3.33 millimol/L=>final conc. in the 5 microL assay volume is 2 millimol/L) and substrate (1.67 micromol/L=>final conc. in the 5 microL assay volume is 1 micromol/L) in assay buffer and the resulting mixture was incubated for a reaction time of 60 min at 22° C. The concentration of CDK12/CycK was adjusted depending of the activity of the enzyme lot and was chosen appropriate to have the assay in the linear range, typical concentrations were about 0.75 nanomol/L. The reaction was stopped by the addition of 3 microL of a solution of TR-FRET detection reagents (125 nanomol/L streptavidine-XL665 [Cisbio Bioassays, Codolet, France] and 0.67 nanomol/L anti-Phospho-c-Myc (Ser 62) (E1J4K)-antibody from Cell Signalling [#13748] and 2 nanomol/L LANCE EU-W1024 labeled anti-rabbit IgG antibody [Perkin-Elmer, product no. 0083]) in an aqueous EDTA-solution (133 millimol/L EDTA, 0.27% (w/v) bovine serum albumin in 66.7 millimol/L HEPES pH 7.5).
The resulting mixture was incubated 1 h at 22° C. to allow the formation of complex between the phosphorylated biotinylated peptide and the detection reagents. Subsequently the amount of phosphorylated substrate was evaluated by measurement of the resonance energy transfer from the Eu-chelate to the streptavidine-XL. Therefore, the fluorescence emissions at 620 nm and 665 nm after excitation at 350 nm was measured in a TR-FRET reader, e.g. a Pherastar FS (BMG Labtechnologies, Offenburg, Germany) or a Viewlux (Perkin-Elmer). The ratio of the emissions at 665 nm and at […] was taken as the measure for the amount of phosphorylated substrate. The data were normalised (enzyme reaction without inhibitor=0% inhibition, all other assay components but no enzyme=100% inhibition).
(Time-resolved FRET reads energy transfer from a long-lived donor to a nearby acceptor.)

In test [1] the test system is CAL-120, human breast adenocarcinoma cells. Nature of the test: Proliferation assay CAL-120 (crystal violet, 4 days). The class given is cell-based. The following applies: Homo sapiens, CAL-120, 96 h, CAL-120 cells, median, read-out: Prolif-CAL-120, IC50-[mol/l] (median). On the procedure:
Human tumour cells were originally obtained from the American Type Culture Collection (ATCC), or from the Deutsche Sammlung von Mikroorganismen und Zellkulturen (DSMZ, German Collection of Microorganisms and Cell Cultures). Cultivated tumour cells (CAL-120, human breast adenocarcinoma cells, DSMZ ACC-459; MDA-MB-231, human breast cancer cells, ATCC HTB-26) were plated at a density of 4,000 cells/well in a 96-well multititer plate in 200 microL of their respective growth medium supplemented 10% fetal calf serum. After 24 hours, the cells of one plate (zero-point plate) were stained with crystal violet (see below), while the medium of the other plates was supplemented with the test substances in various concentrations (0 micromol/L, as well as in the range of 0.01-10 micromol/L; the final concentration of the solvent dimethyl sulfoxide was adjusted to 0.1%) using a Tecan HP D300 Digital Dispenser. The cells were incubated for 4 days in the presence of test substances. Cell proliferation was determined by staining the cells with crystal violet: the cells were fixed by adding 20 microL/measuring point of an 11% glutaric aldehyde solution for 15 minutes at room temperature. After three washing cycles of the fixed cells with water, the plates were dried at room temperature. The cells were stained by adding 100 microL/measuring point of a 0.1% crystal violet solution (pH 3.0). After three washing cycles of the stained cells with water, the plates were dried at room temperature. The dye was dissolved by adding 100 microL/measuring point of a 10% acetic acid solution. The extinction was determined by photometry at a wavelength of 595 nm. The change of cell number, in percent, was calculated by normalization of the measured values to the extinction values of the zero-point plate (=0%) and the extinction of the untreated (0 μM) cells (=100%). The IC50 values (inhibitory concentration at 50% of maximal effect) were determined by means of a 4 parameter fit.

Regarding `CCN1CCN(c2nc(NCc3nc4ccccc4[nH]3)n3ncc(Br)c3n2)CC1` [Example 137, N-[(1H-benzimidazol-2-yl)methyl]-8-bromo-2-(4-ethylpiperazin-1-yl)pyrazolo[1,5-a][1,3,5]triazin-4-amine], the IC50 stood at 13000 nM at CDK12/CycK and 110 nM in test [1].
For `C[C@@H]1CN(c2nc(NCc3nc4cc(F)ccc4[nH]3)n3ncc(Br)c3n2)C[C@H](C)O1` [Example 110, 8-bromo-2-[(2R,6S)-2,6-dimethylmorpholin-4-yl]-N-[(5-fluoro-1H-benzimidazol-2-yl)methyl]pyrazolo[1,5-a][1,3,5]triazin-4-amine] the same measures were 405 nM and 5.03 nM.
For the molecule `Brc1cnn2c(NCc3nc4ccccc4[nH]3)nc(N3CCOCC3C3CC3)nc12` (stereo not shown) [Example 117, N-(1H-benzimidazol-2-ylmethyl)-8-bromo-2-(3-cyclopropylmorpholin-4-yl)pyrazolo[1,5-a][1,3,5]triazin-4-amine], the IC50 on CDK12/CycK came to 4820 nM; in test [1], 23.1 nM.
As to `CN1CCN(c2nc(NCc3nnc(-c4ccccc4)[nH]3)n3ncc(Br)c3n2)CC1=O` [Example 121, 4-(8-bromo-4-{[(5-phenyl-4H-1,2,4-triazol-3-yl)methyl]amino}pyrazolo[1,5-a][1,3,5]triazin-2-yl)-1-methylpiperazin-2-one], the IC50 on CDK12/CycK came to 7470 nM; in test [1], 404 nM.
Take `C[C@H]1CN(c2nc(NCc3nnc(-c4cccc(F)c4)[nH]3)n3ncc(Br)c3n2)CCN1C` [Example 154, 8-bromo-2-[(3S)-3,4-dimethylpiperazin-1-yl]-N-{[5-(3-fluorophenyl)-4H-1,2,4-triazol-3-yl]methyl}pyrazolo[1,5-a][1,3,5]triazin-4-amine]: the IC50 on CDK12/CycK turned out to be 7170 nM; in test [1], 7.69 nM.
As for `CN1CCN(c2nc(NCc3nc4cc(F)ccc4[nH]3)n3ncc(C4CC4)c3n2)CC1` [Example 164, 8-cyclopropyl-N-[(5-fluoro-1H-benzimidazol-2-yl)methyl]-2-(4-methylpiperazin-1-yl)pyrazolo[1,5-a][1,3,5]triazin-4-amine], the IC50 is > 20000 nM at CDK12/CycK and 4.13 nM in test [1].
With `CN1CCN(c2nc(NCc3nnc(-c4cccc(F)c4)[nH]3)n3ncc(Br)c3n2)CC1` [Example 136, 8-bromo-N-{[5-(3-fluorophenyl)-4H-1,2,4-triazol-3-yl]methyl}-2-(4-methylpiperazin-1-yl)pyrazolo[1,5-a][1,3,5]triazin-4-amine], the IC50 came out at 4120 nM at CDK12/CycK and 17.1 nM in test [1].
As to `Brc1cnn2c(NCc3nnc(-c4ccccc4)[nH]3)nc(N3C[C@H]4C[C@@H]3CO4)nc12` [Example 118, 8-bromo-2-[(1R,4R)-2-oxa-5-azabicyclo[2.2.1]heptan-5-yl]-N-[(5-phenyl-4H-1,2,4-triazol-3-yl)methyl]pyrazolo[1,5-a][1,3,5]triazin-4-amine], the results for the IC50 (on CDK12/CycK; in test [1]) were 5700 nM and 29.7 nM, respectively.
With `C[C@H]1CN(c2nc(NCc3nc4ccccc4[nH]3)n3ncc(Br)c3n2)CCN1C` [Example 132, N-[(1H-benzimidazol-2-yl)methyl]-8-bromo-2-[(3S)-3,4-dimethylpiperazin-1-yl]pyrazolo[1,5-a][1,3,5]triazin-4-amine], the IC50 on CDK12/CycK was > 19200 nM; in test [1], 43.4 nM.
With `C[C@H]1CN(c2nc(NCc3nnc(-c4ccccc4)[nH]3)n3ncc(Br)c3n2)CCN1C.O=CO` [Example 122, 8-bromo-2-[(3S)-3,4-dimethylpiperazin-1-yl]-N-[(5-phenyl-4H-1,2,4-triazol-3-yl)methyl]pyrazolo[1,5-a][1,3,5]triazin-4-amine formate], the IC50 is > 20000 nM at CDK12/CycK and 18.5 nM in test [1].
With `Fc1ccccc1-c1cnn2c(NCc3nc4ccccc4[nH]3)nc(N3CCOCC3)nc12` [Example 95, N-[(1H-benzimidazol-2-yl)methyl]-8-(2-fluorophenyl)-2-(morpholin-4-yl)pyrazolo[1,5-a][1,3,5]triazin-4-amine], the values for the IC50 (at CDK12/CycK; in test [1]) were > 20000 nM and 230 nM, respectively.
In the case of `O=S1(=O)CCN(c2nc(NCc3nc4ccccc4[nH]3)n3ncc(Br)c3n2)CC1` [Example 166, 4-(4-{[(1H-benzimidazol-2-yl)methyl]amino}-8-bromopyrazolo[1,5-a][1,3,5]triazin-2-yl)-1 lambda^6-thiomorpholine-1,1-dione], the values for the IC50 (on CDK12/CycK; in test [1]) were 6090 nM and 20.1 nM, respectively.
For `COc1ccc2[nH]c(CNc3nc(N4CCN(C)CC4)nc4c(Br)cnn34)nc2c1` [Example 161, 8-bromo-N-[(5-methoxy-1H-benzimidazol-2-yl)methyl]-2-(4-methylpiperazin-1-yl)pyrazolo[1,5-a][1,3,5]triazin-4-amine] the same measures were 9610 nM and 3.3 nM.
For `CN1CCN(c2nc(NCc3nc4c(F)c(F)ccc4[nH]3)n3ncc(C4CC4)c3n2)CC1` [Example 159, 8-cyclopropyl-N-[(4,5-difluoro-1H-benzimidazol-2-yl)methyl]-2-(4-methylpiperazin-1-yl)pyrazolo[1,5-a][1,3,5]triazin-4-amine], the IC50 was determined as 9620 nM at CDK12/CycK and 1.73 nM in test [1].
As for `Clc1cccc(-c2cnn3c(NCc4nc5ccccc5[nH]4)nc(N4CCOCC4)nc23)c1` [Example 107, N-[(1H-benzimidazol-2-yl)methyl]-8-(3-chlorophenyl)-2-(morpholin-4-yl)pyrazolo[1,5-a][1,3,5]triazin-4-amine], the figures for the IC50 (at CDK12/CycK; in test [1]) were > 20000 nM and 188 nM, respectively.
Take `COc1ccc2[nH]c(CNc3nc(N4C[C@@H](C)O[C@@H](C)C4)nc4c(Br)cnn34)nc2c1` [Example 124, 8-bromo-2-[(2R, 6S)-2,6-dimethylmorpholin-4-yl]-N-[(5-methoxy-1H-benzimidazol-2-yl)methyl]pyrazolo[1,5-a][1,3,5]triazin-4-amine]: the values for the IC50 (at CDK12/CycK; in test [1]) were 489 nM and 6.43 nM, respectively.
The corresponding values for `CN1CCN(c2nc(NCc3nc4cc(F)ccc4[nH]3)n3ncc(Br)c3n2)CC1` [Example 134, 8-bromo-N-[(5-fluoro-1H-benzimidazol-2-yl)methyl]-2-(4-methylpiperazin-1-yl)pyrazolo[1,5-a][1,3,5]triazin-4-amine] are > 17700 nM and 11.6 nM.
